Test results: patent EP1124847B1, “LHRH ANALOGUES FOR THE TREATMENT OF OSTEOPOROSIS” (Ferring B.V., priority 1998, dated 2004)

Test: Serum calcium in the ovariectomised rat (colorimetric assay, day 28)
Format: in vivo, Sprague Dawley rats
Conditions: ovariectomised rats, 80µg/kg daily for 28days
Procedure: • (a) Female adult (8 weeks old, 200-215g) Sprague Dawley rats were bilaterally ovariectomised (OVX). Animals were kept for 4 weeks […] before commencing treatment. -Purina rat chow (1.00% calcium, 0.61% phosphorous) and water were provided ad libitum. Each study consisted of 6 weight-matched groups (n = 8/group). • (b) Treatment started 4 weeks post-OVX. After 4 weeks, a baseline control OVX group was sacrificed (Group A). The remaining groups were injected once a day with vehicle (Group B), 1µg/kg body weight (Group C), 10µg/kg body weight (Group D), 100µg/kg body weight (Group E) of GnRH-II, and 80µg/kg body weight (Group F) of hPTH(1-34). • (c) All rats were weighed every fourth day and dosages adjusted for 50g increase in mean group weight. Rats were given alternate subcutaneous injections ofcalcein (30mg/kg) or tetracyclin (30mg/kg) in 2% sodium bicarbonate-saline, respectively to label mineralization surfaces on days 10, 19 and 26, following treatment with drug. Bone mineral density was assessed by dual energy x-ray absorptometry-DEXA). On day 28 serum calcium levels were determined by colorimetric assay using a commercial kit. • (d) Success of OVX was confirmed at necropsy by failure to detect ovarian tissue and by observation of marked atrophy of the uterine horns. Both legs were disarticulated at the hip. […]

## PTH: Parathyroid hormone, hPTH(1-34), 80µg/kg comparison group (Group F) (SVSEIQLMHNLGKHLNSMERVEWLRKKLQDVHNF; Parathyroid hormone; UniProt P01270 32-65, looked up, fragment)
  serum calcium: pronounced hypercalcemia
